# From US12522593B2, “Azacycloalkyl carbonyl cyclic amine compound” (Alivexis, Inc., priority 2022, dated 2026)
# Legend:
# human recombinant CTSC = human recombinant CTSC (Homo sapiens (Human), UniProt P53634); experiment: CTSC inhibition assay (in vitro), fluorescent substrate GF-AFC; assay type: biochemical; conditions: 30 μmol/L GF-AFC, pH 5.0, 25° C.
# Procedure: 1. CTSC Inhibition Assay (In Vitro)
# A test specimen was evaluated by a CTSC inhibition assay using a fluorescent substrate GF-AFC (Gly-Phe-7-Amino-4-trifluoromethylcoumarin, MP Biomedical, 03AFC03325). Since the GF-AFC is converted by CTSC to aminotrifluoromethylcoumarin having a specific fluorescence wavelength and the produced amount is proportional to CTSC activity, quantitative analysis was performed by measuring a fluorescence intensity with a plate reader. CTSC inhibition assay for each compound was performed using a polystyrene-made non-adhesive surface-treated black 384 well plate under the following conditions.
# A human recombinant CTSC (R&D systems, 1071-CY) was dissolved in a CTSC active cocktail (20 ng/mL of human recombinant cathepsin L (R&D systems, 952-CY, 25 mmol/L MES/NaOH (pH: 6.0), 5 mmol/L dithiothreitol (DTT)) so as to be 100 ng/mL and incubated at 18° C. for 30 minutes. The solution was diluted with a CTSC assay buffer (50 mmol/L MES/NaOH (pH: 5.0), 50 mmol/L NaCl, 0.001% Triton X-100, mmol/L DTT) so as to be 2 ng/mL in a case of performing CTSC inhibition assay.
# The test specimen was dissolved in dimethylsulfoxide (DMSO) at 10 mmol/L to prepare a stock solution. In a case where a solution in which the stock solution was diluted 15-fold with DMSO was used as the maximum evaluation concentration (0.667 mmol/L), 5-fold dilution was repeated in DMSO from the solution to prepare a serially diluted solution. 248.8 μL of the CTSC assay buffer was added to 1.12 μL of the serially diluted sample prepared in the DMSO to prepare a solution of a CTSC inhibition assay compound.
# The final composition of the CTSC inhibition assay mixture was 0.66 ng/mL activated CTSC, 50 mmol/L MES/NaOH (pH: 5.0), 50 mmol/L NaCl, 0.001% Triton X-100, 5 mmol/L DTT, 30 μmol/L GF-AFC, and 0.15% DMSO, and the procedure was as follows. That is, 4 μL of the compound solution and 4 μL of the 2 ng/mL activated CTSC solution were mixed with each other in a 384 well plate and incubated at 25° C. for 30 minutes. Thereafter, 4 μL of the GF-AFC solution dissolved in the CTSC assay buffer was added to the mixture so as to be 90 μmol/L. After mixing to be uniform, a fluorescence emission intensity at 505 nm in a case of being excited at 390 nm after incubating at 25° C. for 1 hour was measured with a plate reader. A 4-parameter regression analysis was performed with GraphPad Prism (manufactured by GraphPad Software) from a plot of the fluorescence intensity at 505 nm and the sample concentration, and an IC50 value was calculated.
# Results of test compounds of Formula (I) are shown in Table 1 as IC50 (nM) values for which 50% inhibition concentration is calculated based on CTSC inhibition (%). In the table, Ex indicates an example number.
# CTSC in U937 cells = CTSC in U937 cells (Homo sapiens (Human), UniProt P53634); experiment: Intracellular CTSC inhibition assay (in vitro), LLOMe-induced cell death in U937 cells; assay type: cell-based; conditions: 3 hours culture, CellTiter-Glo
# Procedure: 2. Intracellular CTSC Inhibition Assay (In Vitro)
# A test specimen was evaluated by a degree of cell death in a case where a substrate LLOMe (L-Leucyl-L-Leucine methyl ester, hydrobromide salt, Sigma, 555045152) was added to U937 cells. The LLOMe is taken up into the cells by endocytosis and cleaved by CTSC. A product thereof induces lysosomal damage in cells and causes cell death in leukocytes and the like. Therefore, since the degree of cell death correlates with an amount of degradation of LLOMe, that is, with CTSC activity, by quantitatively analyzing the cell death, CTSC inhibitory activity of the test specimen in the cell was determined. CTSC inhibition assay was performed using a polystyrene-made white 384 well plate.
# As the test specimen, a stock solution dissolved in DMSO was prepared so as to be 0.2 mmol/L, and in a case where a solution in which the stock solution was diluted 50-fold with a RPMI-1640 medium including 10% FBS was used as the maximum evaluation concentration (4000 nmol/L), a serially diluted solution was prepared by diluting the solution 3-fold with the medium. Thereafter, a 4-fold concentrated test specimen solution with the target final concentration was prepared.
# U937 cells were cultured in a RPMI-1640 medium including 10% FBS, and diluted to prepare 90,000 cells/mL of cell suspension on the day of assay. 10 μL of the cell suspension was seeded per well. Next, 10 μL of the test specimen solution having a concentration 4 times the target final concentration was added thereto, and the mixture was allowed to stand for 30 minutes. Thereafter, 20 μL of a 300 μmol/L LLOMe solution dissolved in a RPMI-1640 medium including 10% FBS was added thereto, and the cells were cultured for 3 hours. After completion of the culture, 40 μL of CellTiter-Glo (registered trademark) reagent (Promega, G7570) was added to each well and mixed. After 15 minutes, 20 μL of the reaction solution in each well was transferred to a white 384 well plate, and a chemiluminescence intensity was measured with a plate reader. A 4-parameter regression analysis was performed with GraphPad Prism (manufactured by GraphPad Software) from a plot of the luminescence intensity and the sample concentration, and an IC50 value was calculated.
# Results of test compounds of Formula (1) are shown in Table 2 as IC50 (nM) values for which 50% inhibition concentration is calculated based on CTSC inhibition (%). In the table, Ex indicates an example number.
# Chain of CTSC in U937 cells (P53634 25-463): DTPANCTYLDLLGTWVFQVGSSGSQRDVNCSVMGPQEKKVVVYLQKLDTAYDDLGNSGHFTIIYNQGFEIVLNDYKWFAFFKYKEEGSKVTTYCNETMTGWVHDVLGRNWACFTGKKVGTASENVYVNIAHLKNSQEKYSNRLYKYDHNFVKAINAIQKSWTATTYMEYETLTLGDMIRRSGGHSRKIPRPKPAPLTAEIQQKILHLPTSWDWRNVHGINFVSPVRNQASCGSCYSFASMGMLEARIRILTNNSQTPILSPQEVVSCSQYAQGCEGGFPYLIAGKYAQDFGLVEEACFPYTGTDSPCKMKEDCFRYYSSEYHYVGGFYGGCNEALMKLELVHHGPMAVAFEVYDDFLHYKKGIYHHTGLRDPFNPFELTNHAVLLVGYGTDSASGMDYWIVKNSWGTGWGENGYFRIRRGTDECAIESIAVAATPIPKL
# Chain of human recombinant CTSC (P53634 25-134): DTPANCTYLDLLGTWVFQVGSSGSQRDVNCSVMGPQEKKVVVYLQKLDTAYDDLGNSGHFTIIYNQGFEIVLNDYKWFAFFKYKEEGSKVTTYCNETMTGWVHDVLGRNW
# Chain of human recombinant CTSC (P53634 231-394): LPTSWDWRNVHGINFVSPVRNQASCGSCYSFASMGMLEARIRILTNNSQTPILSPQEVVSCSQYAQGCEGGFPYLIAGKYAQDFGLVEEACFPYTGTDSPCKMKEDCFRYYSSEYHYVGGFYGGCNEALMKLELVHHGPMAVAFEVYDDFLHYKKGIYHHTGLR
# Chain of human recombinant CTSC (P53634 395-463): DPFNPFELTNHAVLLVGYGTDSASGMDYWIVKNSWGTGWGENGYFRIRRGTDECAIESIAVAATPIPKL
Compound,IC50 (human recombinant CTSC),IC50 (CTSC in U937 cells)
O=C([C@@H]1C[C@@H](O)C2(CCC2)CN1)N1CCC(C(=O)N2CCOC3(CC3)C2)(C(F)(F)F)CC1 [Example 32],25.5 nM,8.84 nM
O=C([C@@H]1C[C@@H](O)C2(CCC2)CN1)N1CCC(c2nc(C3CCC(F)(F)CC3)no2)(C(F)(F)F)CC1 [Example 13],1.7 nM,0.19 nM
CN(C1(c2nc(C3CC(F)(F)C3)no2)CCN(C(=O)[C@@H]2C[C@@H](O)C3(CCC3)CN2)CC1)S(C)(=O)=O [Example 78],5.68 nM,129 nM
CC(C)C1(c2noc(C3CCC(F)(F)CC3)n2)CCN(C(=O)[C@H]2NC3CCC2CC3)CC1 [Example 23],88.8 nM,60.9 nM
COc1cccc(-n2nnc(C3CCN(C(=O)[C@@H]4C[C@@H](O)C5(CCC5)CN4)CC3)n2)c1 [Example 100],5.4 nM,3.48 nM
CC(C)C1(c2noc(C3CCC(F)(F)CC3)n2)CCN(C(=O)[C@@H]2C[C@H](O)CN2)CC1 [Example 25],> 200 nM,> 200 nM
CC(NC(=O)C1(C(F)(F)F)CCN(C(=O)[C@@H]2CC[C@@]3(CCO3)CN2)CC1)C1CCC(F)(F)CC1 (stereo partly drawn) [Example 33],2.62 nM,7.5 nM
O=C([C@@H]1C[C@@H](O)C2(CCC2)CN1)N1CCC(c2noc(C3CC(F)(F)C3)n2)(C2CC2)CC1 [Example 69],1.73 nM,1.44 nM
O=C([C@@H]1CC[C@@]2(CCO2)CN1)N1CCC(C(=O)NCC2CCC(F)(F)CC2)(C(F)(F)F)CC1 [Example 85],2.51 nM,4.12 nM
O=C([C@@H]1C[C@@H](O)C2(CCC2)CN1)N1CCC(c2nnn(Cc3ccccc3)n2)CC1 [Example 102],9.48 nM,9.46 nM
O=C([C@@H]1C[C@@H](O)C2(CCC2)CN1)N1CCC(C(=O)N2CC[C@@H](C(F)(F)F)C2)(C(F)(F)F)CC1 [Example 52],8.16 nM,10.2 nM
O=C([C@@H]1C[C@@H](O)C2(CCC2)CN1)N1CCC(c2noc(C3CC(F)(F)C3)n2)(c2nccs2)CC1 [Example 68],2.92 nM,5.44 nM
Cc1ccc(C2(c3nc(C4CC(F)(F)C4)no3)CCN(C(=O)[C@@H]3C[C@@H](O)C4(CCC4)CN3)CC2)cc1 [Example 83],1.47 nM,0.23 nM
O=C([C@@H]1CC[C@@]2(CCO2)CN1)N1CCC(c2nc(C3CCC(F)(F)CC3)cs2)(C(F)(F)F)CC1 [Example 4],4.85 nM,5.64 nM
O=C([C@@H]1C[C@@H](O)C2(CCC2)CN1)N1CCC(C(=O)N2CCC(C(F)(F)F)C2)(C(F)(F)F)CC1 (stereo partly drawn) [Example 35],3.39 nM,6.54 nM
O=C([C@@H]1C[C@@H](O)C2(CCC2)CN1)N1CCC(c2noc(C3CCCOC3)n2)(C(F)(F)F)CC1 (stereo partly drawn) [Example 60],4.09 nM,1.39 nM
O=C([C@@H]1C[C@@H](O)C2(CCC2)CN1)N1CCC(n2nnc(-c3ccc(F)cc3F)n2)CC1 [Example 104],1.46 nM,0.61 nM
O=C([C@@H]1C[C@@H](O)C2(CCC2)CN1)N1CCC(c2nccc(-n3cc(F)cn3)n2)CC1 [Example 99],4.15 nM,1.12 nM
"O=C([C@@H]1C[C@@H](O)C2(CCC2)CN1)N1CCC(c2nnn(C3CC(F)(F)C3)n2)(C(F)(F)F)CC1 [Example 67, (4-(2-(3,3-Difluorocyclobutyl)-2H-tetrazol-5-yl)-4-(trifluoromethyl)piperidin-1-yl)((7S,9R)-9-hydroxy-6-azaspiro[3.5]nonan-7-yl)methanone]",3.25 nM,1.41 nM
CC(C)C1(C(=O)NCC2CCC(F)(F)CC2)CN(C(=O)[C@@H]2CC[C@@]3(CCO3)CN2)C1 [Example 27],0.24 nM,133 nM
CC1(O)CC[C@@H](C(=O)N2CCC(c3noc(C4CC(F)(F)C4)n3)(C(F)(F)F)CC2)NC1 (stereo partly drawn) [Example 76],187 nM,> 111 nM
